Our source for the IC50 values is ChEMBL document CHEMBL3638859, “Aryl benzylamine compounds” (2014).

The target of the test is Sphingosine 1-phosphate receptor 1 (Homo sapiens, UniProt P21453). Kind of test: Receptor Calcium FLIPR Antagonist Assay: The assay measures intracellular changes of Ca2+ mediated by the synthetic probing agonist 3-{[2-(2-Trifluoromethyl-biphenyl-4-yl)-benzo[b]thiophen-5-ylmethyl]-amino}-propionic acid (GNF-AC-1) in the HeLa-S1P1/Galpha16 cell clone 1: HeLa (human cervix carcinoma, ATCC CCL2) cells stably expressing N-terminally myc-tagged human S1P1 receptors (GenBank accession No. NM001400; UNIPROT P21453) and promiscuous Galpha16 protein (GenBank accession number M63904, Swissprot P30679) are cultured at 37 C., 5% CO2, and 95% relative humidity. The cells are plated in 384 well black plates (10'000 cells per well). After 24 hours the cells are loaded with Fluo-4-AM (1.6 uM in HBSS and 2.5 mM probenicid) for 1 hour at 37 C. After washing, the cells are transferred to the FLIPR. The test compounds are added at different concentrations (<=100 uM) in HBSS in the presence of 0.1% BSA and changes in fluorescence are recorded (indication of agonism). It counts as functional, cell-based.
Chain of Sphingosine 1-phosphate receptor 1 (P21453 whole entry): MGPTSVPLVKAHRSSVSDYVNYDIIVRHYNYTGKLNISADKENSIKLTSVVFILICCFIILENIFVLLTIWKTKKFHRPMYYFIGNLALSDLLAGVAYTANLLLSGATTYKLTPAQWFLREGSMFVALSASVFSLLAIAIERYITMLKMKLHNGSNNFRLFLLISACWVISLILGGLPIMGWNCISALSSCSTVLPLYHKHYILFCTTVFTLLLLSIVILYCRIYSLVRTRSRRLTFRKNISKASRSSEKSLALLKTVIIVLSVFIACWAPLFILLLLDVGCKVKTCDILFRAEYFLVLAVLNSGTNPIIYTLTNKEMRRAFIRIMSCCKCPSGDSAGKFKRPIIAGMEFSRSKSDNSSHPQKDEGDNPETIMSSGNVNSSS

Usually IC50 stands for the concentration that inhibits the measured activity by half. Turning to `CC[C@@H](Nc1ccc(Cl)c(CNCCC(=O)O)c1)c1cc(C)c(Cl)c(C)c1`, the IC50 turned out to be 2.4 nM.
Next, `Cc1cc([C@H](Nc2ccc(F)c(CN3CC(C(=O)O)C3)c2)C(F)(F)F)ccc1Cl`: 0.1 nM.
